Format in all cases: biochemical
One assay addresses T1, SRPK1 GST (Homo sapiens, UniProt Q96SB4).
T1 construct: GST
Put plainly: General kinase assay: SRPK1. As to conditions: concentration 10 μM; read-out: Inhibitory effect on Target SRPK1 GST. Here is the method:
(§1) General Assay Protocol for all Kinases [[[…]]] [[[…]]] Reaction Buffer: Final Assay Concentrations: [[[…]]] Pipetting Sequence: • 1) Add 8 μl 50 μM MBP in Reaction Buffer to each well of Assay Plate • 2) Add 10 μl 500 mM EDTA in H2O to C- wells • 3) Add 8 μl 62.5 μCi/ml Adenosine 5'-[γ-^33P]triphosphate+5 μM ATP in Reaction Buffer to each well • 4) Add 8 μl 5 fold concentrated inhibitor in 5% DMSO in Reaction Buffer to each well except to C- and C+ wells • 5) Add 8 μl 5% DMSO in Reaction Buffer to C- and C+ wells • 6) Add 8 μl 5 fold concentrated kinase in Reaction Buffer to each well • 7) Incubate 1 hr at room temperature • 8) Add 10 μl 50 mM EDTA in H2O to each well except to C- wells • 9) Prepare MAPH plates by adding 200 μl 0.75% H3PO4 to each well • 10) Exhaust 0.75% H3PO4 using Millipore vacuum station • 11) Add 60 μl 0.75% H3PO4 to each well of MAPH Filter Plate • 12) Transfer 30 μl sample per well from Assay Plate to corresponding well of MAPH Filter Plate • 13) Incubate 30 min at room temperature • 14) Wash each well of MAPH Filter Plates 3× with 200 μl 0.75% H3PO4 using Millipore vacuum station • 15) Add 20 μl Szintilation Liquid to each well of MAPH Filter Plate • 16) Seal MAPH Filter Plate • 17) Store MAPH Filter Plate 30 min in darkness • 18) Quantify radioactivity

A further assay deals with T2, InsR GST (Homo sapiens, UniProt P06213).
T2 construct: GST
As to the kind of experiment: General kinase assay: InsR. The settings on record: concentration 10 μM; read-out: Inhibitory effect on Target InsR GST. The procedure: as §1

The target of the next assay is T3, AKT1/PKBa act. HIS (Homo sapiens, UniProt P31749).
T3 construct: His
Put plainly: General kinase assay (MBP, 33P-ATP, filter plate): AKT1/PKBa. The settings on record: concentration 10 μM; read-out: Inhibitory effect on Target AKT1/PKBa act. HIS. Here is the method:
as §1

The target in the next assay is T4, Jnk1a1 HIS (Homo sapiens, UniProt P45983).
T4 construct: His
T4 sequence (P45983 1-384 isoform P45983-2): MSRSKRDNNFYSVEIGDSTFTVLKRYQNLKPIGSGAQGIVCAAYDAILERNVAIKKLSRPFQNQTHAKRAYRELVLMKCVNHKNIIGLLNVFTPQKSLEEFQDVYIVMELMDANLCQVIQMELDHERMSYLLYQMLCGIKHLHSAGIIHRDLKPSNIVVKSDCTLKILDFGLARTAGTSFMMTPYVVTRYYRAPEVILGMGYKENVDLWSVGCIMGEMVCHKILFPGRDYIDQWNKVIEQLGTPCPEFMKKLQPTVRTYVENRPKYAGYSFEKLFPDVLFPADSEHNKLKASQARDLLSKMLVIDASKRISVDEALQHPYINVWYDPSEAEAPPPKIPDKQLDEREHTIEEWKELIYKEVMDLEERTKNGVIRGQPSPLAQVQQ
As to the kind of experiment: General kinase assay: Jnk1a1. The settings on record: concentration 10 μM; read-out: Inhibitory effect on Target Jnk1a1 HIS. The procedure:
as §1

The test system of another assay is p70S6K HIS. As to the kind of experiment: General kinase assay: p70S6K. The settings on record: concentration 10 μM. Here is the method:
as §1

The target in a further assay is CDK2/CycA (Homo sapiens, UniProt P24941). As to the kind of experiment: General kinase assay: CDK2/CycA. The settings on record: concentration 10 μM; read-out: Inhibitory effect on Target CDK2/CycA. The procedure: as §1
The next assay concerns the target T5, CK1-alpha GST (Homo sapiens, UniProt P48729).
T5 construct: GST
As to the kind of experiment: General kinase assay: CK1-alpha. As to conditions: concentration 10 μM; read-out: Inhibitory effect on Target CK1-alpha GST. The procedure:
as §1

The target in the next assay is T6, RICK-STREP 1 (Homo sapiens, UniProt O43353).
T6 construct: Strep
Put plainly: General kinase assay: RICK. As to conditions: concentration 10 μM; read-out: Inhibitory effect on Target RICK-STREP 1. The procedure:
as §1

Another assay addresses T7, RSK1 act. HIS (Homo sapiens, UniProt Q15418).
T7 construct: His
Put plainly: General kinase assay: RSK1. The settings on record: concentration 10 μM; read-out: Inhibitory effect on Target RSK1 act. HIS. The procedure: as §1

Another assay deals with T8, IKKbeta HIS (Homo sapiens, UniProt O14920).
T8 construct: His
T8 sequence (O14920 1-756): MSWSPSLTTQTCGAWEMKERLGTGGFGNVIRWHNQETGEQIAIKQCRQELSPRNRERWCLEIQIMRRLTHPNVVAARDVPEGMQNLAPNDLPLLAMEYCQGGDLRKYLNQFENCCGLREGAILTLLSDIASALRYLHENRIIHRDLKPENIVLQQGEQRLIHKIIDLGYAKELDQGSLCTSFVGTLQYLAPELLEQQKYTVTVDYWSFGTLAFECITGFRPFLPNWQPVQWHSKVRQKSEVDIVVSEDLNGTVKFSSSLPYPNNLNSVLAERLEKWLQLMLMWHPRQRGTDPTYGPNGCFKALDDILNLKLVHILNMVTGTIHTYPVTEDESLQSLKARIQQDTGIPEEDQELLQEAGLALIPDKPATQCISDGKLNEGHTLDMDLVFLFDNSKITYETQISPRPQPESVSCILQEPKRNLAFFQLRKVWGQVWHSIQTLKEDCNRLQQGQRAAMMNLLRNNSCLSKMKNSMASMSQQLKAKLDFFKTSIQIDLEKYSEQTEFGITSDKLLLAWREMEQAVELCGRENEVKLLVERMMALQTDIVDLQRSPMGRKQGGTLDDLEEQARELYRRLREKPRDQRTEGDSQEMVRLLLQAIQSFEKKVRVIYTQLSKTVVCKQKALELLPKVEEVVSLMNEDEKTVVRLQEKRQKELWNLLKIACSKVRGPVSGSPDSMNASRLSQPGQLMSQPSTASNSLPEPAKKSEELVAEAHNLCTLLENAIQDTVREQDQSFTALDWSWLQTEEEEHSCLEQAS
Put plainly: General kinase assay: IKKbeta. As to conditions: concentration 10 μM; read-out: Inhibitory effect on Target IKKbeta HIS. Here is the method:
as §1

Another assay has as its target T9, EGFR GST-HIS (Homo sapiens, UniProt P00533).
T9 construct: GST; His
As to the kind of experiment: General kinase assay: EGFR. The settings on record: concentration 10 μM; read-out: Inhibitory effect on Target EGFR GST-HIS. Here is the method:
as §1

A further assay concerns the target T10, Kit human GST (Homo sapiens, UniProt P10721).
T10 construct: GST
As to the kind of experiment: General kinase assay: Kit. As to conditions: concentration 10 μM; read-out: Inhibitory effect on Target Kit human GST. Here is the method:
as §1

The next assay concerns the target T11, PDGFRbeta GST (Homo sapiens, UniProt P09619).
T11 construct: GST
Put plainly: General kinase assay: PDGFRbeta. As to conditions: concentration 10 μM; read-out: Inhibitory effect on Target PDGFRbeta GST. Here is the method: as §1

Another assay concerns the target T12, GSK-3beta HIS (Homo sapiens, UniProt P49841).
T12 construct: His
Put plainly: General kinase assay: GSK-3beta. As to conditions: concentration 10 μM; read-out: Inhibitory effect on Target GSK-3beta HIS. Here is the method: as §1

The target of another assay is T13, c-Src HIS (Homo sapiens, UniProt P12931).
T13 construct: His
Put plainly: General kinase assay: c-Src. The settings on record: concentration 10 μM; read-out: Inhibitory effect on Target c-Src HIS. Here is the method: as §1

In a further assay the target is T14, ROCK2 human HIS (Homo sapiens, UniProt O75116).
T14 construct: His
Put plainly: General kinase assay: ROCK2. The settings on record: concentration 10 μM; read-out: Inhibitory effect on Target ROCK2 human HIS. The procedure: as §1

In another assay the target is CDK1/CycB act.GST-HIS (Homo sapiens, UniProt P06493). Put plainly: General kinase assay: CDK1/CycB. The settings on record: concentration 10 μM; read-out: Inhibitory effect on Target CDK1/CycB act.GST-HIS. The procedure:
as §1

In a further assay the target is T15, cMet GST-HIS (Homo sapiens, UniProt P08581).
T15 construct: GST; His
Put plainly: General kinase assay: cMet. As to conditions: concentration 10 μM; read-out: Inhibitory effect on Target cMet GST-HIS. The procedure: as §1

T5 sequence (P48729 whole entry): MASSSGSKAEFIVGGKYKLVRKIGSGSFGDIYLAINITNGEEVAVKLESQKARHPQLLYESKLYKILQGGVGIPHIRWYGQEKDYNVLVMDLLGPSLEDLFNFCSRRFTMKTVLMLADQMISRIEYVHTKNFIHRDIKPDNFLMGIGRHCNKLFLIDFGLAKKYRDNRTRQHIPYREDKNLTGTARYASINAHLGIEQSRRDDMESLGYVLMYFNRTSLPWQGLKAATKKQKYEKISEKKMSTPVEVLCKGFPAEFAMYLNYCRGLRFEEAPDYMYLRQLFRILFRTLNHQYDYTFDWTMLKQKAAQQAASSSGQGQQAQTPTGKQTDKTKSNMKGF
T12 sequence (P49841 whole entry): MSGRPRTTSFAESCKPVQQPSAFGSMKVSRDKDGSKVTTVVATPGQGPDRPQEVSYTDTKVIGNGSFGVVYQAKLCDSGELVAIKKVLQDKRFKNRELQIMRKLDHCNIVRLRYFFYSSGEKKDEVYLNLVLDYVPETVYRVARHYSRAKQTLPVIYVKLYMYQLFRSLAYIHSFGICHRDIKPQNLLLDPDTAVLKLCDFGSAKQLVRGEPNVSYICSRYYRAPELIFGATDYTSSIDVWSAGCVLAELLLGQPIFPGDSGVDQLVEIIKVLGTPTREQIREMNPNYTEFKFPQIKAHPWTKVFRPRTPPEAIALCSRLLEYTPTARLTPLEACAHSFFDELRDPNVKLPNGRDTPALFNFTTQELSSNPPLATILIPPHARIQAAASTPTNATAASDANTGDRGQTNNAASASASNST
T10 sequence (P10721 26-976): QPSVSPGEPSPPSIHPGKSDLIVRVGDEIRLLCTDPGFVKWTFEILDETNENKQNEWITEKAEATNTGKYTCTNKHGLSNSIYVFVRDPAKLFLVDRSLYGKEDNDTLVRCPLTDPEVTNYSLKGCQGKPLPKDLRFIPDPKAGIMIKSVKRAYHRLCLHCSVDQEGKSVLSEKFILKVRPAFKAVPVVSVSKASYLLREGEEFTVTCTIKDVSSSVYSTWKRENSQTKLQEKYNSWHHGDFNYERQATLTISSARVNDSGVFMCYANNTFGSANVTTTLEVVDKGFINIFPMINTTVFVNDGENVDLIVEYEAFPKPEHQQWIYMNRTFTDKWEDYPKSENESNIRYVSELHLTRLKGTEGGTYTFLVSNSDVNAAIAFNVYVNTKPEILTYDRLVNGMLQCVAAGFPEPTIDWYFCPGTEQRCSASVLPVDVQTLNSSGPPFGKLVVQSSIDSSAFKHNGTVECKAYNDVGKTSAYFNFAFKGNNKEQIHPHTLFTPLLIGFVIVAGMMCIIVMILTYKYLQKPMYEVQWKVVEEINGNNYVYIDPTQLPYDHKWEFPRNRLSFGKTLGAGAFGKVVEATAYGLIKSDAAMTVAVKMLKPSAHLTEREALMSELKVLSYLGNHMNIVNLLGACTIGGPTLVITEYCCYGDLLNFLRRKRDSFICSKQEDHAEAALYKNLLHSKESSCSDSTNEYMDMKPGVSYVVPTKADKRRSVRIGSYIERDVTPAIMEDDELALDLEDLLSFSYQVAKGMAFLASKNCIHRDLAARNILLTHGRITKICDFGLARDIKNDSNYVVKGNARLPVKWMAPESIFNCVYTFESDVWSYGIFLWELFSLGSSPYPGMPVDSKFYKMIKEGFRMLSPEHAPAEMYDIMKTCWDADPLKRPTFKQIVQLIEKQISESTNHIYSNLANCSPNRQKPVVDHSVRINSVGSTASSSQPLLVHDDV
T9 sequence (P00533 25-1210): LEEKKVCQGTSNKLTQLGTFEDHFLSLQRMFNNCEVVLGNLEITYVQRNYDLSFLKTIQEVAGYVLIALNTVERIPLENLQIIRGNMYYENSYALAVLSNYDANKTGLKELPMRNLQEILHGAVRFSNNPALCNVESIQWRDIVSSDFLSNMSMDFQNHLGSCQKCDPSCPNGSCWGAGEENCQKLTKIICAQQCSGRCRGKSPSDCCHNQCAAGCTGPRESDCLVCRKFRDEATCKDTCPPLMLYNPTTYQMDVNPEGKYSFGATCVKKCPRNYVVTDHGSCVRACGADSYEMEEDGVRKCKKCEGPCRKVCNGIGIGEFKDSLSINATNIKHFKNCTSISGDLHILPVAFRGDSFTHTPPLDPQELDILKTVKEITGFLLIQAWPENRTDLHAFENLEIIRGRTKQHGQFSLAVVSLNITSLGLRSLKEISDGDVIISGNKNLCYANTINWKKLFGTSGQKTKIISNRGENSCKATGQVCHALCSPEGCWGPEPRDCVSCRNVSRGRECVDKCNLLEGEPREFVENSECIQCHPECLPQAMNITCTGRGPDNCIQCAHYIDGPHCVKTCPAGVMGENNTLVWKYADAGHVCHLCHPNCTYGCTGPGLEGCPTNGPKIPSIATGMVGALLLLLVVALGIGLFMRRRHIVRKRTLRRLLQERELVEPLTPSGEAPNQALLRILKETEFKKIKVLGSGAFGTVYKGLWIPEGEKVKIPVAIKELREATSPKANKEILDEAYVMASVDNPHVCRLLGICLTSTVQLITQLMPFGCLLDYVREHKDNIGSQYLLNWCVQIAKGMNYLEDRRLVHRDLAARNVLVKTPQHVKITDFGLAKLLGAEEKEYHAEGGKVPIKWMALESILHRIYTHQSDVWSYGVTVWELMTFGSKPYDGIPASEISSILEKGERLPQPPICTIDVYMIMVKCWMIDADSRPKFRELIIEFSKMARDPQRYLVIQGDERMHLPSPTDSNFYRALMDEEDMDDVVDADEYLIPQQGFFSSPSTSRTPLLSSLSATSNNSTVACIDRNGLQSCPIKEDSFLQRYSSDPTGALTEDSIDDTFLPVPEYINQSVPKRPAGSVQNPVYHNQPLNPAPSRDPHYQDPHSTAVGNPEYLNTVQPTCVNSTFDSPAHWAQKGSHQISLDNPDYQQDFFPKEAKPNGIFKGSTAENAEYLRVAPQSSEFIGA
T11 sequence (P09619 33-1106): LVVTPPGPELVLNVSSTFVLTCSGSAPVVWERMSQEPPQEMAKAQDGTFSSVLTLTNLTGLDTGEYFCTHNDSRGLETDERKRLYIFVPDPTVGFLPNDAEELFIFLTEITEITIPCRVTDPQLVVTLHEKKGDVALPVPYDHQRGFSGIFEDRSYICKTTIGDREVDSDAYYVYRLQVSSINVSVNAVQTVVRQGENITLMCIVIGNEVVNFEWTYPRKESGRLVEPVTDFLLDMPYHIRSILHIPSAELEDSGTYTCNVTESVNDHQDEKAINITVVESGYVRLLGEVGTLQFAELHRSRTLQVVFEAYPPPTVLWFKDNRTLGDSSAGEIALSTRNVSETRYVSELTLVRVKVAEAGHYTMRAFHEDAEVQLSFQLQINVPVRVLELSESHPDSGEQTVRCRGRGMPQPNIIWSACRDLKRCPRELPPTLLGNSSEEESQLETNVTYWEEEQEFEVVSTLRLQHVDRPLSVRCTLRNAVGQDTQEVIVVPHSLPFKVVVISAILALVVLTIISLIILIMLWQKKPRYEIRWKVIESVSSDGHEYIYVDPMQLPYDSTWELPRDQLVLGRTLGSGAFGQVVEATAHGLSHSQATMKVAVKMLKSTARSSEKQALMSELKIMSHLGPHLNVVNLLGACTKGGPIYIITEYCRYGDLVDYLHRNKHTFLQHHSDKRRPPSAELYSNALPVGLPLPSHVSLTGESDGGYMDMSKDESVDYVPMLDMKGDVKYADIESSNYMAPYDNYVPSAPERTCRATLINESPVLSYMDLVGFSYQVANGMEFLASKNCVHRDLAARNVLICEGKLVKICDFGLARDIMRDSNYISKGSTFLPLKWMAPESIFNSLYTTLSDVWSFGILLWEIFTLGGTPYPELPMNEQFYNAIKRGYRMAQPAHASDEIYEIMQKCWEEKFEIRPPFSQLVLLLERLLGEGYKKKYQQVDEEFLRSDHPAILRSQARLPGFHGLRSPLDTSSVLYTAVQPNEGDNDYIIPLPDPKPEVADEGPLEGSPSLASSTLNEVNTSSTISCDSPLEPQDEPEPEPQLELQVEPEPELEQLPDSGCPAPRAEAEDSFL
T1 sequence (Q96SB4 whole entry): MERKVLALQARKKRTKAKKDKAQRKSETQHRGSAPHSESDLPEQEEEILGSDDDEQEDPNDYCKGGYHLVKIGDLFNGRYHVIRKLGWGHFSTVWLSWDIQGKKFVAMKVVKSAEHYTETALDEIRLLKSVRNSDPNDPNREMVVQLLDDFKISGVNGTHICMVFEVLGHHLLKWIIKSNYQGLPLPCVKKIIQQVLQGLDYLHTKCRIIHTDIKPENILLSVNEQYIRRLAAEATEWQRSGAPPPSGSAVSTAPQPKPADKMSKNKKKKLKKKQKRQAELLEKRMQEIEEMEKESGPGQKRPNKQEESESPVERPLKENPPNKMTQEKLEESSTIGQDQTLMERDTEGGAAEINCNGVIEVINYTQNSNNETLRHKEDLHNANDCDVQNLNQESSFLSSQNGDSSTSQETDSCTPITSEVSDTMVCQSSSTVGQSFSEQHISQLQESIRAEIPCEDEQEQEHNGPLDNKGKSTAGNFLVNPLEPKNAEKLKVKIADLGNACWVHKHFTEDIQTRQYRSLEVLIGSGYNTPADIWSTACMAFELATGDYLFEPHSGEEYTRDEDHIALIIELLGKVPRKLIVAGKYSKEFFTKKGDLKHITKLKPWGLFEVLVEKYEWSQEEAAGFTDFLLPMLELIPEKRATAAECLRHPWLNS

Regarding `CC1CC1C(=O)Nc1sc2c(Cl)c(O)ccc2c1C(N)=O` (stereo not shown) [Compound A37, 7-Chloro-6-hydroxy-2-[(2-methyl-cyclopropanecarbonyl)-amino]-benzo[b]thiophene-3-carboxylic acid amide], the inhibition at 10 µM at SRPK1 GST, on InsR GST, on AKT1/PKBa act. HIS, at Jnk1a1 HIS, at CDK2/CycA and on CK1-alpha GST was greater than 50% each time. Besides, the inhibition at 10 µM on RICK-STREP 1, at RSK1 act. HIS, on IKKbeta HIS, at EGFR GST-HIS, on Kit human GST and at PDGFRbeta GST was greater than 50% in each case. In addition, the inhibition at 10 µM on GSK-3beta HIS is greater than 50%. In the assay with p70S6K HIS, the “Inhibitory effect on Target p70S6K HIS” value is “+ (+ = >50% inhibition at concentration 10 μM)”.
Consider `NC(=O)c1c(NC(=O)Nc2ccccc2)sc2cc(O)ccc12` [Compound A12, 6-Hydroxy-2-(3-phenyl-ureido)-benzo[b]thiophene-3-carboxylic acid amide], for which the inhibition at 10 µM on SRPK1 GST, at c-Src HIS, on Jnk1a1 HIS, on CDK2/CycA, at CK1-alpha GST and at RICK-STREP 1 was greater than 50% in each case. In addition, the inhibition at 10 µM on RSK1 act. HIS, at EGFR GST-HIS, on Kit human GST, at PDGFRbeta GST, on GSK-3beta HIS and at ROCK2 human HIS was greater than 50% each time. For the same compound, in the assay with p70S6K HIS, the “Inhibitory effect on Target p70S6K HIS” value was “+ (+ = >50% inhibition at concentration 10 μM)”.
With `NC(=O)c1c(NC(=O)Nc2ccc(F)cc2)sc2c1CCC(O)C2` (stereo not shown) [Compound D142, 2-[3-(4-Fluoro-phenyl)-ureido]-6-hydroxy-4,5,6,7-tetrahydro-benzo[b]thiophene-3-carboxylic acid amide], the inhibition at 10 µM on SRPK1 GST, on c-Src HIS, on CDK2/CycA, on CK1-alpha GST, at RICK-STREP 1 and on IKKbeta HIS was greater than 50% throughout.
Consider `NC(=O)c1c(NC(=O)Nc2ccc(F)cc2)sc2c1CCOC2` [Compound B13, 2-[3-(4-Fluoro-phenyl)-ureido]-4,7-dihydro-5H-thieno[2,3-c]pyran-3-carboxylic acid amide], for which the inhibition at 10 µM on SRPK1 GST, at CDK1/CycB act.GST-HIS, on Kit human GST and at PDGFRbeta GST was greater than 50% throughout.
As to `NC(=O)c1c(NC(=O)C2CC2)sc2c(O)c(Br)ccc12` [Compound A15, 6-Bromo-2-(cyclopropanecarbonyl-amino)-7-hydroxy-benzo[b]thiophene-3-carboxylic acid amide], the inhibition at 10 µM at SRPK1 GST, at Jnk1a1 HIS, on cMet GST-HIS, on CK1-alpha GST, on RICK-STREP 1 and at EGFR GST-HIS was greater than 50% in each case. Also, the inhibition at 10 µM on PDGFRbeta GST and on GSK-3beta HIS was greater than 50% throughout. The “Inhibitory effect on Target p70S6K HIS” value with p70S6K HIS is given as “+ (+ = >50% inhibition at concentration 10 μM)”.

(Values after US20070275962A1, “Heterobicyclic Compounds as Pharmaceutically Active Agents” (GPC BIOTECH AG, priority 2003, published 2007).)
